We go through 21 compounds from patent US11285156B2, “Substituted piperazines as KRAS G12C inhibitors” (Amgen Inc., priority 2018, dated 2022).

The target in this assay is GDP-bound KRAS protein (aa 1-169), containing both G12C and C118A amino acid substitutions (Homo sapiens (Human), UniProt P01116, C118A/G12C). The assay can be described thus: Coupled nucleotide exchange assay (SOS-mediated nucleotide exchange, AlphaScreen). Format: biochemical. Particulars: read-out: Coupled exchange IC50 (5 min; μM); 5 min compound pre-incubation.
GDP-bound KRAS protein (aa 1-169), containing both G12C and C118A amino acid substitutions, sequence (P01116 other isoform, or with tags, fused parts or gaps G12C/C118A): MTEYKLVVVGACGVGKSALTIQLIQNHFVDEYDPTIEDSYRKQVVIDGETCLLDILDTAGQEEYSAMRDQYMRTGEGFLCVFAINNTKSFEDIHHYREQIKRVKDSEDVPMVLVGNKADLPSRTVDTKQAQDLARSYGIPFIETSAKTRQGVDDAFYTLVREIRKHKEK

For `C=CC(=O)N1C[C@H](C)N(c2nc(=O)n(-c3c(C)ccnc3C(C)C)c3nc(-c4cncnc4C(C)C)c(Cl)cc23)C[C@H]1C` (atropisomer, axis not shown; (M)) [Example 92-68, (M)-6-Chloro-4-[(2S,5R)-2,5-dimethyl-4-prop-2-enoyl-piperazin-1-yl]-1-(2-isopropyl-4-methyl-3-pyridyl)-7-(4-isopropylpy-rimidin-5-yl)pyrido[2,3-d]pyrimidin-2-one], the 50% inhibitory concentration (IC50) was 3.31 µM.

Take `C=CC(=O)N1C[C@H](C)N(c2nc(=O)n(-c3c(C)ccnc3C(C)C)c3nc(-c4cccnc4C4CC4)c(Cl)cc23)C[C@H]1C` (atropisomer, axis not shown; (M)) [Example 92-69, (M)-6-Chloro-7-(2-cyclopropyl-3-pyridyl)-4-[(2S,5R)-2,5-dimethyl-4-prop-2-enoyl-piperazin-1-yl]-1-(2-isopropyl-4-methyl-3-pyridyl)pyrido [2,3-d]pyrimidin-2-one]: the IC50 turned out to be 1.36 µM.

As to `C=CC(=O)N1C[C@H](C)N(c2nc(=O)n(-c3c(C)ccnc3C(C)C)c3nc(-c4cc(OC)cc5ccccc45)c(Cl)cc23)C[C@H]1C` (atropisomer, axis not shown; (M)) [Example 92-70, (M)-6-Chloro-4-[(2S,5R)-2,5-dimethyl-4-prop-2-enoyl-piperazin-1-yl]-1-(2-isopropyl-4-methyl-3-pyridyl)-7-(3-methoxy-1-naphthyl)pyrido [2,3-d]pyrimidin-2-one], the IC50 stood at 0.6 µM. Next, `C=CC(=O)N1C[C@H](C)N(c2nc(=O)n(-c3c(C)ccnc3C(C)C)c3nc(-c4nc(C)sc4C)c(Cl)cc23)C[C@H]1C` (atropisomer, axis not shown; (M)) [Example 92-71, (M)-6-Chloro-4-[(2S,5R)-2,5-dimethyl-4-prop-2-enoyl-piperazin-1-yl]-7-(2,5-dimethylthiazol-4-yl)-1-(2-isopropyl-4-methyl-3-pyridyl)pyrido [2,3-d]pyrimidin-2-one]: 1.36 µM; `C=CC(=O)N1C[C@H](C)N(c2nc(=O)n(-c3c(C)ccnc3C(C)C)c3nc(-c4scnc4C)c(Cl)cc23)C[C@H]1C` (atropisomer, axis not shown; (M)) [Example 92-72, (M)-6-Chloro-4-[(2S,5R)-2,5-dimethyl-4-prop-2-enoyl-piperazin-1-yl]-1-(2-isopropyl-4-methyl-3-pyridyl)-7-(4-methylthiazol-5-yl)pyrido[2,3-d]pyrimidin-2-one]: 8.87 µM. Next, `C=CC(=O)N1C[C@H](C)N(c2nc(=O)n(-c3c(C)ccnc3C(C)C)c3nc(-c4cc(F)ccc4F)c(F)cc23)C[C@H]1C` (atropisomer, axis not shown; (M)) [Example 94-3, (M)-7-(2,5-difluorophenyl)-4-[(2S,5R)-2,5-dimethyl-4-prop-2-enoyl-piperazin-1-yl]-6-fluoro-1-(2~ isopropyl-4-methyl-3-pyridyl)pyrido [2,3-d]pyrimidin-2-one]: 0.684 µM; `C=CC(=O)N1C[C@H](C)N(c2nc(=O)n(-c3c(C)ccnc3C(C)C)c3nc(-c4cc(OC)ccc4Cl)c(F)cc23)C[C@H]1C` (atropisomer, axis not shown; (M)) [Example 94-6, (M)-7-(2-chloro-5-methoxy-phenyl)-4-[(2S,5R)-2,5-dimethyl-4-prop-2-enoyl-piperazin-1-yl]-6-fluoro-1-(2-isopropyl-4-methyl-3-pyridyl)pyrido [2,3-d]pyrimidin-2-one]: 0.468 µM. `C=CC(=O)N1C[C@H](C)N(c2nc(=O)n(-c3c(C)ccnc3C(C)C)c3nc(-c4c(C)cccc4C)c(F)cc23)C[C@H]1C` (atropisomer, axis not shown; (M)) [Example 94-9, (M)-7-(2,6-Dimethylphenyl)-4-[(2S,5R)-2,5-dimethyl-4-prop-2-enoyl-piperazin-1-yl]-6-fluoro-1-(2-isopropyl-4-methyl-3-pyridyl)pyrido [2,3-d]pyrimidin-2-one]: the half-maximal inhibitory concentration (IC50) came out at 0.469 µM. Next, `C=CC(=O)N1C[C@H](C)N(c2nc(=O)n(-c3c(C)ccnc3C(C)C)c3nc(-c4c(F)cccc4F)c(F)cc23)C[C@H]1C` (atropisomer, axis not shown; (M)) [Example 94-11, (M)-7-(2,6-Difluorophenyl)-4-[(2S,5R)-2,5-dimethyl-4-prop-2-enoyl-piperazin-1-yl]-6-fluoro-1-(2-isopropyl-4-methyl-3-pyridyl)pyrido [2,3-d]pyrimidin-2-one]: 0.844 µM; `C=CC(=O)N1C[C@H](C)N(c2nc(=O)n(-c3c(C)ccnc3C(C)C)c3nc(-c4ccccc4C(F)F)c(F)cc23)C[C@H]1C` (atropisomer, axis not shown; (M)) [Example 94-13, (M)-7-[2-(Difluoromethyl)phenyl]-4-[(2S,5R)-2,5-dimethyl-4-prop-2-enoyl-piperazin-1-yl]-6-fluoro-1-(2-isopropyl-4-methyl-3-pyridyl)pyrido [2,3-d]pyrimidin-2-one]: 0.387 µM; `C=CC(=O)N1C[C@H](C)N(c2nc(=O)n(-c3c(C)ccnc3C(C)C)c3nc(-c4ccccc4C(=O)O)c(F)cc23)C[C@H]1C` (atropisomer, axis not shown; (M)) [Example 94-15, (M)-2-[4-[(2S,5R)-2,5-Dimethyl-4-prop-2-enoyl-piperazin-1-yl]-6-fluoro-1-(2-isopropyl-4-methyl-3-pyridyl)-2-oxo-pyrido[2,3-a]pyrimidin-7-yl]benzoic acid]: 0.963 µM. Next, `C=CC(=O)N1C[C@H](C)N(c2nc(=O)n(-c3c(C)ccnc3C(C)C)c3nc(-c4ccccc4C(N)=O)c(F)cc23)C[C@H]1C` (atropisomer, axis not shown; (M)) [Example 94-17, (M)-2-[4-[(2S,5R)-2,5-Dimethyl-4-prop-2-enoyl-piperazin-1-yl]-6-fluoro-1-(2-isopropyl-4-methyl-3-pyridyl)-2-oxo-pyrido[2,3-d]pyrimidin-7-yl]benzamide]: 0.39 µM; `C=CC(=O)N1C[C@H](C)N(c2nc(=O)n(-c3c(C)ccnc3C(C)C)c3nc(-c4ccccc4C(=O)NC)c(F)cc23)C[C@H]1C` (atropisomer, axis not shown; (M)) [Example 94-18]: 0.749 µM; `C=CC(=O)N1C[C@H](C)N(c2nc(=O)n(-c3c(C)ccnc3C(C)C)c3nc(-c4ccccc4N)c(F)cc23)C[C@H]1C` (atropisomer, axis not shown; (M)) [Example 94-20, (M)-7-(2-Aminophenyl)-4-[(2S,5R)-2,5-dimethyl-4-prop-2-enoyl-piperazin-1-yl]-6-fluoro-1-(2-isopropyl-4-methyl-3-pyridyl)pyrido [2,3-d]pyrimidin-2-one]: 0.452 µM. Next, `C=CC(=O)N1C[C@H](C)N(c2nc(=O)n(-c3c(C)ccnc3C(C)C)c3nc(-c4cc(OC)cc5ccccc45)c(F)cc23)C[C@H]1C` (atropisomer, axis not shown; (M)) [Example 94-21, (M)-4-[(2S,5R)-2,5-Dimethyl-4-prop-2-enoyl-piperazin-1-yl]-6-fluoro-1-(2-isopropyl-4-methyl-3-pyridyl)-7-(3-methoxy-1-naphthyl)pyrido[2,3-d]pyrimidin-2-one]: 32.4 µM; `C=CC(=O)N1C[C@H](C)N(c2nc(=O)n(-c3c(C)ccnc3C(C)C)c3nc(CC(C)(C)C)c(Cl)cc23)C[C@H]1C` (atropisomer, axis not shown; (M)) [Example 95-2, (M)-6-chloro-4-[(2S,5R)-2,5-dimethyl-4-prop-2-enoyl-piperazin-1-yl]-7-(2,2-dimethylpropyl)-1-(2-isopropyl-4-methyl-3-pyridyl)pyrido [2,3-d]pyrimidin-2-one]: 1.04 µM. As to `C=CC(=O)N1C[C@H](C)N(c2nc(=O)n(-c3c(C)ccnc3C(C)C)c3nc(C4CCCC4)c(Cl)cc23)C[C@H]1C` (atropisomer, axis not shown; (M)) [Example 95-3, (M)-6-chloro-7-cyclopentyl-4-[(2S,5R)-2,5-dimethyl-4-prop-2-enoyl-piperazin-1-yl]-1-(2-isopropyl-4-methyl-3-pyridyl)pyrido [2,3-d]pyrimidin-2-one], the half-maximal inhibitory concentration (IC50) is 0.631 µM. Under `C=CC(=O)N1C[C@H](C)N(c2nc(=O)n(-c3c(C)ccnc3C(C)C)c3nc(C4CC4)c(Cl)cc23)C[C@H]1C` (atropisomer, axis not shown; (M)) [Example 95-4, (M)-6-chloro-7-cyclopropyl-4-[(2S,5R)-2,5-dimethyl-4-prop-2-enoyl-piperazin-1-yl]-1-(2-isopropyl-4-methyl-3-pyridyl)pyrido [2,3-d]pyrimidin-2-one] stands 0.571 µM. Regarding `C=CC(=O)N1C[C@H](C)N(c2nc(=O)n(-c3c(C)ccnc3C(C)C)c3nc(CCC)c(Cl)cc23)C[C@H]1C` (atropisomer, axis not shown; (M)) [Example 95-6, (M)-6-chloro-4-[(2S,5R)-2,5-dimethyl-4-prop-2-enoyl-piperazin-1-yl]-1-(2-isopropyl-4-methyl-3-pyridyl)-7-propyl-pyrido[2,3-d]pyrimidin-2-one], the IC50 worked out at 0.823 µM. `C=CC(=O)N1C[C@H](C)N(c2nc(=O)n(-c3c(C)ccnc3C(C)C)c3nc(C#CC(C)(C)C)c(Cl)cc23)C[C@H]1C` (atropisomer, axis not shown; (M)) [Example 95-7, (M)-6-chloro~7-(3,3-dimethylbut-1-ynyl)-4-[(2S,5R)-2,5-dimethyl-4-prop-2-enoyl-piperazin-1-yl]-1-(2-isopropyl-4-methyl-3-pyridyl)pyrido [2,3-d]pyrimidin-2-one]: the IC50 came out at 34 µM. With `C=CC(=O)N1C[C@H](C)N(c2nc(=O)n(-c3c(C)ccnc3C(C)C)c3nc(-c4ncccc4C)c(Cl)cc23)C[C@H]1C` (atropisomer, axis not shown; (M)) [Example 96-1, (M)-6-Chloro-4-[(2S,5R)-2,5-dimethyl-4-prop-2-enoyl-piperazin-1-yl]-1-(2-isopropyl-4-methyl-3-pyridyl)-7-(3-methyl-2-pyridyl)pyrido[2,3-d]pyrimidin-2-one], the IC50 was found to be 0.345 µM.
